Tests used:
DLD-1 cells = experiment: MTS cell viability assay, DLD-1 cells; type: cell-based
Method: (§1) Cell viability is determined by measuring the activity of dehydrogenase enzymes in metabolically active cells using a tetrazolium compound, MTS. The assay is performed as described in Promega Technical Bulletin No. 169 (CellTiter 96 Aqueous Non-Radioactive Cell Proliferation Assay). Two cell lines, DLD-1 and NCM-460 are assayed (see, e.g., Table 2). Cells are maintained at 37° C., 5% CO2. Adherent cells are maintained DMEM media (4.5 g/L glucose) supplemented with 15% heat-inactivated FBS, 10 mM L-glutamine, and 10 mM Hepes pH 7.5. Suspension cells are maintained in RPMI 1640 media, supplemented with 10% heat-inactivated FBS and 10 mM Hepes pH 7.5. […] Candidate compounds, including the polymer-modified therapeutics to be tested, are serially diluted in the indicated solvents are, further diluted in cell culture media, and then added to cells. […] MTS stock solution (MTS 2 gm/L, PMS […] in PBS) is added to the cells (final concentration MTS […] and PMS 7.67 mg/L) and incubated for 4 hours. […] The IC50 is defined as the concentration of compound that results in a 50% reduction in the number of viable cells as compared to control wells treated with DMSO only (0.33%) and 0.3% SDS, and is calculated using non-linear regression analysis.

NCM-460 cells = experiment: MTS cell viability assay, NCM-460 cells; type: cell-based
Method: as §1

[1] = Hydrolytic release of β-lapachone or ketal from poly-L-glutamate conjugates, monitored by HPLC; type: physicochemical
From the text: […] The complete release of 2,2-dimethyl-3,4-dihydro-2H-benzo[h]chromene-5,6-dione from the conjugate is achieved within 2-3 days as monitored by HPLC. In addition to the 2,2-dimethyl-3,4-dihydro-2H-benzo[h]chromene-5,6-dione peak, two additional peaks are detected in the HPLC chromatogram. These peaks are believed to be products of the degradation of 2,2-dimethyl-3,4-dihydro-2H-benzo[h]chromene-5,6-dione and an alternate hydrolysis product of conjugate. The concentration of released 2,2-dimethyl-3,4-dihydro-2′-1-benzo[h]chromene-5,6-dione is calculated by comparing the peak areas with the previously obtained calibration curve of 2,2-dimethyl-3,4-dihydro-2H-benzo[h]chromene-5,6-dione standard. […] Loading on the polymer is then calculated as follows: […]
The conjugate is dissolved in water at a concentration of about 0.3 mg/ml and sonicated to facilitate dissolution. […] The concentration of released 2,2-dimethyl-3,4-dihydro-2H-benzo[h]chromene-5,6-dione is determined by HPLC and the quantity calculated by comparing the peak areas with a previously obtained calibration curve of 2,2-dimethyl-3,4-dihydro-2H-benzo[h]chromene-5,6-dione standard, as described above in Example 10. […]

human cancer cell lines = conditions: single agent; typical range; read-out: antineoplastic activity against human cancer cell lines (IC50); cited from earlier work
[2] = system: human peripheral blood mononuclear cells (PBMC); conditions: cited from earlier work
[3] = biological target: T1, human DNA Topoisomerases I (Homo sapiens, UniProt P11387); conditions: cited from earlier work
T1 sequence (P11387 1-765): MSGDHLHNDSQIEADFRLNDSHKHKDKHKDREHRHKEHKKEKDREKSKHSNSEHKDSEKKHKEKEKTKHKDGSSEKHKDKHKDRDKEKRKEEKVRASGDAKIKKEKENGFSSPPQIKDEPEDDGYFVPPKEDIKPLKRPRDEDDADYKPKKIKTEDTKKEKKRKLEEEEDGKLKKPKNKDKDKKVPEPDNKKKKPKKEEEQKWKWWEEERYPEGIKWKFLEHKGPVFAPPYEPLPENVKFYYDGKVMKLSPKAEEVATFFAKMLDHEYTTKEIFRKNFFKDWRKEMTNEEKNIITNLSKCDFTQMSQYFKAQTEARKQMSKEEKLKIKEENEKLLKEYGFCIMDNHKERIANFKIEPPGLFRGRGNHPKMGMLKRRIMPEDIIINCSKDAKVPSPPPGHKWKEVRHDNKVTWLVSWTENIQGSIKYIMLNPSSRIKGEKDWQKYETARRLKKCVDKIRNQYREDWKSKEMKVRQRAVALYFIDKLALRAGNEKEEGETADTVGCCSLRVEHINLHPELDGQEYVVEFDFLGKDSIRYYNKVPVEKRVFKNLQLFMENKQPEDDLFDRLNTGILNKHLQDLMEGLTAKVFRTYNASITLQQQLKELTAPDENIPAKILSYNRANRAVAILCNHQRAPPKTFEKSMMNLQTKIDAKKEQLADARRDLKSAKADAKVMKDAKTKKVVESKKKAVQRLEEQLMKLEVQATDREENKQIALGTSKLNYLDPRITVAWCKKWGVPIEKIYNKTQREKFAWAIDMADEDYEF

[4] = biological target: human DNA Topoisomerases II (Homo sapiens, UniProt P11388); conditions: cited from earlier work
human DNA Topoisomerases II, sequence (P11388 whole entry): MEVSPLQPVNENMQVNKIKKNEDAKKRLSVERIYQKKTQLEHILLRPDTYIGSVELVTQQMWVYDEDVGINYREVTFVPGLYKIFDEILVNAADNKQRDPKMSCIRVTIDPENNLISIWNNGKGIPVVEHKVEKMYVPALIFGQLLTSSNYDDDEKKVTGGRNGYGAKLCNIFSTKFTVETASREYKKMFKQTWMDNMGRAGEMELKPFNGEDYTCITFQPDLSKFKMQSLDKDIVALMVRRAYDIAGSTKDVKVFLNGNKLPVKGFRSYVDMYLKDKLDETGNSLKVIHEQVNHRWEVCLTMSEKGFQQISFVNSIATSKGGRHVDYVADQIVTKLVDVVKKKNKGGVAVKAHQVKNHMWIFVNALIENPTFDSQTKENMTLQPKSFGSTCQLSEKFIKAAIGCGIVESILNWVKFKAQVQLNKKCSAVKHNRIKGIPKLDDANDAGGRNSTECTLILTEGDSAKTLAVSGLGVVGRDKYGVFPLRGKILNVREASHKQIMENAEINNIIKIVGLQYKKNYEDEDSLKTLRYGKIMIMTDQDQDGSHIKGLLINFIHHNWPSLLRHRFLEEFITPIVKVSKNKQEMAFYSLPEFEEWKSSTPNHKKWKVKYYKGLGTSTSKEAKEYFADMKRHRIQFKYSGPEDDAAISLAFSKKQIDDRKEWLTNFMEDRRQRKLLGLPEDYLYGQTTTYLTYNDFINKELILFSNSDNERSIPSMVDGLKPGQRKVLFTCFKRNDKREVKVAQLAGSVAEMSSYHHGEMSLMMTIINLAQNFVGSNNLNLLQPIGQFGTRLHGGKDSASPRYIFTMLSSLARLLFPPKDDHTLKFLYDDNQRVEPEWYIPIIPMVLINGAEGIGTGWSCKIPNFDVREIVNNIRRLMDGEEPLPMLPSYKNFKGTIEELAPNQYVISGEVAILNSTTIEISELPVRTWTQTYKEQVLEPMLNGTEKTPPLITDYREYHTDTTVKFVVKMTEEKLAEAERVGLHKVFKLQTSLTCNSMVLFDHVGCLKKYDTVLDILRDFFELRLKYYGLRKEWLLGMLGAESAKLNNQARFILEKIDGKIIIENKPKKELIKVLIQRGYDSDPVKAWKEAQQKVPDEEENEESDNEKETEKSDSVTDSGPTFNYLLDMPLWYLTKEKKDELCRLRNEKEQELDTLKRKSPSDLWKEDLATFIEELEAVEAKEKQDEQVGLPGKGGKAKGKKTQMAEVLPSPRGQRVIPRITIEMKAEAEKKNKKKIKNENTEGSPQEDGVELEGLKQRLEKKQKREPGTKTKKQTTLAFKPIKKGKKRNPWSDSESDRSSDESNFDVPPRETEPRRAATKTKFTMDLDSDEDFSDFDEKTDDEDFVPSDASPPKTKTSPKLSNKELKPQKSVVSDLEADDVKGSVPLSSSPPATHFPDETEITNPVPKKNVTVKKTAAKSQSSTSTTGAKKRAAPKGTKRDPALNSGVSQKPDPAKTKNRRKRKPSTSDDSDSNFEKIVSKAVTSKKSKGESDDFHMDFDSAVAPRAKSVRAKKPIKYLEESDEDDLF

| Compound | IC50 (DLD-1 cells; incubation time 20 hours) [µM] | IC50 (DLD-1 cells; incubation time 72 hours) [µM] | IC50 (NCM-460 cells; incubation time 20 hours) [µM] | IC50 (NCM-460 cells; incubation time 72 hours) [µM] | time for hydrolysis of β-lapachone from the conjugate ([1]; pH 11.4) [min] | time to complete release of β-lapachone from the conjugate ([1]; phosphate buffer pH 9.6, about 0.1 mg/ml) [days] | IC50 (DLD-1 cells; Homo sapiens, DLD-1, incubation time 20 hours) [µM] | IC50 (DLD-1 cells; Homo sapiens, DLD-1, incubation time 72 hours) [µM] | IC50 (NCM-460 cells; Homo sapiens, NCM460, incubation time 20 hours) [µM] | IC50 (NCM-460 cells; Homo sapiens, NCM460, incubation time 72 hours) [µM] | IC50 (human cancer cell lines) [µM] | cytotoxic effects on normal fresh or proliferating human PBMC [2] | in vitro inhibition of human DNA Topoisomerase I [3] | in vitro inhibition of human DNA Topoisomerase II [4] |
| --- | --- | --- | --- | --- | --- | --- | --- | --- | --- | --- | --- | --- | --- | --- |
| (2,2-dimethyl-5-oxo-3,4-dihydro-2H,5H-spiro[benzo[h]chromene-6,2′-[1,3]dioxolan]-4′-yl)methyl γ-poly-L-glutamate sodium | > 100 | > 100 | > 100 | > 100 |  |  |  |  |  |  |  |  |  |  |
| 5-(acetyloxy)-2,2-dimethyl-3,4-dihydro-2H-benzo[h]chromen-6-yl glycinate γ-poly-L-glutamate | 4.42 | 1.39 | 8.12 | 3.66 | 20 | 2 to 3 |  |  |  |  |  |  |  |  |
| CC1(C)CCC2=C(O1)c1ccccc1C(=O)C2=O [β-lapachone, 3,4-dihydro-2,2-dimethyl-2H-naphtho[1,2-b]pyran-5,6-dione, reference compound] |  |  |  |  |  |  | 3.13 | 1.71 | 8.19 | 3.25 | 1 to 10 | No cytotoxic effects were observed | potent in vitro inhibition | potent in vitro inhibition |
